Tests used:
[1] = system: MDA-MB-231 tumor cell line; experiment: siRNA knockdown and cell viability assay; type: cell-based, human
OVCAR-4 tumor cell line = experiment: siRNA knockdown and cell viability assay; type: cell-based, human

SMILES: Cn1c(=O)n(-c2ccc(C(C)(C)C#N)cc2)c2c3cc(-c4cnc5ccccc5c4)ccc3ncc21 [NVP-BEZ235]
- Sensitivity to NVP-BEZ235 (cell viability) upon loss of OGT expression ([1]; OGT siRNA + 10 nM NVP-BEZ235): increased sensitivity
- Sensitivity of cell line to NVP-BEZ235 ([1]; data not shown): resistant
- Sensitivity to NVP-BEZ235 (cell viability) upon loss of OGT expression (OVCAR-4 tumor cell line; OGT siRNA + 10 nM NVP-BEZ235): no effect
- Sensitivity of cell line to NVP-BEZ235 (OVCAR-4 tumor cell line; data not shown): highly NVP-BEZ235-resistant
